Test results taken from US6664398B2, “Derivatives of erythromycin, their preparation process and their use as medicaments” (Aventis Pharma S.A., priority 1999, dated 2003).

Tests used:
Type in all cases: cell-based
[1] = test system: Haemophilus Influenzae 351HT3, 351CB12, 351CA1 and 351GR6; experiment: Activity on gram-negative bacterial strains
Experimental: (§1) Method of dilutions in liquid medium A series of tubes is prepared in which the same quantity of nutritive sterile medium is distributed. Increasing quantities of the product to be studied are distributed into each tube, then each tube is sown with a bacterial strain. After incubation for twenty-four hours in a heating chamber at 37° C., the growth inhibition is evaluated by transillumination, which allows the minimal inhibitory concentrations (M.I.C.) to be determined, expressed in micrograms/cm^3. The following results were obtained with the product of Example 1: (reading after 24 hours)

[2] = test system: S. pneumoniae 030CR18c; experiment: Method of dilutions in liquid medium (M.I.C.); conditions: reading after 24 hours, 37° C.
Experimental: as §1

[3] = test system: S. mitis 02MitGR16i; experiment: Method of dilutions in liquid medium (M.I.C.); conditions: reading after 24 hours, 37° C.
Experimental: as §1

[4] = test system: S. pneumoniae 030SJ1c; experiment: Method of dilutions in liquid medium (M.I.C.); conditions: reading after 24 hours, 37° C.
Experimental: as §1

[5] = test system: S. pneumoniae 032UC1; experiment: Method of dilutions in liquid medium (M.I.C.); conditions: reading after 24 hours, 37° C.
Experimental: as §1

[6] = test system: S. pneumoniae 030GR20; experiment: Method of dilutions in liquid medium (M.I.C.); conditions: reading after 24 hours, 37° C.
Experimental: as §1

[7] = test system: S. agalactiae 02B1SJ1c; experiment: Method of dilutions in liquid medium (M.I.C.); conditions: reading after 24 hours, 37° C.
Experimental: as §1

[8] = test system: S. pneumoniae 030PW23c; experiment: Method of dilutions in liquid medium (M.I.C.); conditions: reading after 24 hours, 37° C.
Experimental: as §1

[9] = test system: S. pneumoniae 030SJ5i; experiment: Method of dilutions in liquid medium (M.I.C.); conditions: reading after 24 hours, 37° C.
Experimental: as §1

[10] = test system: S. sanguis 02SGr10i; experiment: Method of dilutions in liquid medium (M.I.C.); conditions: reading after 24 hours, 37° C.
Experimental: as §1

[11] = test system: S. pyogenes 02A1UC1; experiment: Method of dilutions in liquid medium (M.I.C.); conditions: reading after 24 hours, 37° C.
Experimental: as §1

[12] = test system: S. epidermidis 012GO11i; experiment: Method of dilutions in liquid medium (M.I.C.); conditions: reading after 24 hours, 37° C.
Experimental: as §1

[13] = test system: Streptococcus gr.G 02GOGR5; experiment: Method of dilutions in liquid medium (M.I.C.); conditions: reading after 24 hours, 37° C.
Experimental: as §1

[14] = test system: S. aureus 011GO25i; experiment: Method of dilutions in liquid medium (M.I.C.); conditions: reading after 24 hours, 37° C.
Experimental: as §1

[15] = test system: S. pneumoniae 030RO1i; experiment: Method of dilutions in liquid medium (M.I.C.); conditions: reading after 24 hours, 37° C.
Experimental: as §1

[16] = test system: S. faecalis 02D2DU15c; experiment: Method of dilutions in liquid medium (M.I.C.); conditions: reading after 24 hours, 37° C.
Experimental: as §1

[17] = test system: S. faecium 02D3HT1; experiment: Method of dilutions in liquid medium (M.I.C.); conditions: reading after 24 hours, 37° C.
Experimental: as §1

[18] = test system: S. mitis 02MitCB1; experiment: Method of dilutions in liquid medium (M.I.C.); conditions: reading after 24 hours, 37° C.
Experimental: as §1

[19] = test system: S. agalactiae 02B1HT1; experiment: Method of dilutions in liquid medium (M.I.C.); conditions: reading after 24 hours, 37° C.
Experimental: as §1

[20] = test system: S. aureus 011UC4; experiment: Method of dilutions in liquid medium (M.I.C.); conditions: reading after 24 hours, 37° C.
Experimental: as §1

[21] = test system: S. faecalis 02D2UC1; experiment: Method of dilutions in liquid medium (M.I.C.); conditions: reading after 24 hours, 37° C.
Experimental: as §1

Structure (SMILES): CC[C@H]1OC(=O)[C@H](C)C(=O)[C@H](C)[C@@H](O[C@@H]2O[C@H](C)C[C@H](N(C)C)[C@H]2O)[C@](C)(OC)C[C@@H](C)C(=O)[C@H](C)[C@H]2N(CCCCn3ccc(-c4cccnc4)n3)C(=O)O[C@]12C [Example 1, 11,12-dideoxy-3-de[(2,6-dideoxy-3-C-methyl-3-O-methyl-α-L-ribohexopyranosyl)oxy]-6-O-methyl-3-oxo-12,11-[oxycarbonyl[[4-[3-(3-pyridinyl)-1H-pyrazol-1-yl]butyl]imino]]-erythromycin]
- activity on gram-negative bacterial strains [1]: useful activity
- minimal inhibitory concentrations (M.I.C.) [2]: 0.300 micrograms/cm^3
- minimal inhibitory concentrations (M.I.C.) [3]: 0.02 micrograms/cm^3
- minimal inhibitory concentrations (M.I.C.) [4]: 0.150 micrograms/cm^3
- minimal inhibitory concentrations (M.I.C.) [5]: 0.02 micrograms/cm^3
- minimal inhibitory concentrations (M.I.C.) [6]: 0.02 micrograms/cm^3
- minimal inhibitory concentrations (M.I.C.) [7]: 0.050 micrograms/cm^3
- minimal inhibitory concentrations (M.I.C.) [8]: 0.02 micrograms/cm^3
- minimal inhibitory concentrations (M.I.C.) [9]: 0.040 micrograms/cm^3
- minimal inhibitory concentrations (M.I.C.) [10]: 0.02 micrograms/cm^3
- minimal inhibitory concentrations (M.I.C.) [11]: 0.02 micrograms/cm^3
- minimal inhibitory concentrations (M.I.C.) [12]: 0.040 micrograms/cm^3
- minimal inhibitory concentrations (M.I.C.) [13]: 0.02 micrograms/cm^3
- minimal inhibitory concentrations (M.I.C.) [14]: 0.600 micrograms/cm^3
- minimal inhibitory concentrations (M.I.C.) [15]: 0.150 micrograms/cm^3
- minimal inhibitory concentrations (M.I.C.) [16]: 5.000 micrograms/cm^3
- minimal inhibitory concentrations (M.I.C.) [17]: 0.02 micrograms/cm^3
- minimal inhibitory concentrations (M.I.C.) [18]: 0.02 micrograms/cm^3
- minimal inhibitory concentrations (M.I.C.) [19]: 0.02 micrograms/cm^3
- minimal inhibitory concentrations (M.I.C.) ([20]; S. aureus 011UC4+ 50% serum): 0.600 micrograms/cm^3
- minimal inhibitory concentrations (M.I.C.) ([20]; S. aureus 011UC4): 0.040 micrograms/cm^3
- minimal inhibitory concentrations (M.I.C.) [21]: 0.02 micrograms/cm^3
